In ChEMBL document CHEMBL2074088, “Trans-stimulation effects of folic acid derivatives on methotrexate transport by rat renal organic anion transporter, OAT-K1” (J Pharmacol Exp Ther, 2000):

Each compound was assayed against T1, Solute carrier organic anion transporter family member 1A3 (Rattus norvegicus, UniProt P70502) (assay: TP_TRANSPORTER: inhibition of MTX uptake in OAT-K1-expressing MDCK cells).
T1 sequence (P70502 whole entry): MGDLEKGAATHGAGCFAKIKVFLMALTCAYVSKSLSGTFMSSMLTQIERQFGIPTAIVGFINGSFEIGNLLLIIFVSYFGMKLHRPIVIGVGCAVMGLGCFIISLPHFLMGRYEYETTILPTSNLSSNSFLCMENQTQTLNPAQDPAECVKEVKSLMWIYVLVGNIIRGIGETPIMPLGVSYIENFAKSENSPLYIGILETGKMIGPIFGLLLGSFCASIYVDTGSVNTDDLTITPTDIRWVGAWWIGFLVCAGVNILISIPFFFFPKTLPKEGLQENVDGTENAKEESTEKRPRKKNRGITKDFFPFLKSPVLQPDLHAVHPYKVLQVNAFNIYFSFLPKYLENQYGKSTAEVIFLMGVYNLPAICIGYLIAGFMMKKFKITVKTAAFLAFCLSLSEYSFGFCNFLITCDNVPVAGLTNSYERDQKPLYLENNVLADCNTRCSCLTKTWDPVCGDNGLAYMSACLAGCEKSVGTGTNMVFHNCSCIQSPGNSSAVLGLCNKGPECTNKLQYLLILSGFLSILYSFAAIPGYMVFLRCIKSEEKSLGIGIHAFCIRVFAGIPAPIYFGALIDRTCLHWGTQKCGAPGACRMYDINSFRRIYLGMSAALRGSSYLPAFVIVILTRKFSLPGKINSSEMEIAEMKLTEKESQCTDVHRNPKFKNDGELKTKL
Format: functional, cell-based

SMILES	Ki [µM]
O=C1OC(c2ccc(O)c(S(=O)(=O)O)c2)(c2ccc(O)c(S(=O)(=O)O)c2)c2c(Br)c(Br)c(Br)c(Br)c21 [SULFOBROMOPHTHALEIN SODIUM]	21
Nc1nc(N)c2nc(CNc3ccc(C(=O)N[C@@H](CCC(=O)O)C(=O)O)cc3)cnc2n1 [AMINOPTERIN]	0.5
Nc1nc2ncc(CNc3ccc(C(=O)N[C@@H](CCC(=O)O)C(=O)O)cc3)nc2c(=O)[nH]1 [FOLIC ACID]	14.1

Other lines, results leading:

Ki [µM]	SMILES
1.2	CN1c2c(nc(N)[nH]c2=O)NC[C@@H]1CNc1ccc(C(=O)N[C@@H](CCC(=O)O)C(=O)O)cc1 [LEVOMEFOLIC ACID]
8.2	Nc1nc2c(c(=O)[nH]1)N(C=O)C(CNc1ccc(C(=O)N[C@@H](CCC(=O)O)C(=O)O)cc1)CN2 (stereo not given in full) [LEUCOVORIN]
